Target: T1, IRE1 kinase activity (Mus musculus, UniProt Q9EQY0)
T1 construct: from tissue; host or cells: thioglycolate-elicited peritoneal macrophages of C57BL/6 mice
Experiment: IRE1 and FMRP phosphorylation in peritoneal macrophages of TM-injected mice (western blot)
Format: in vivo
Conditions: C57BL/6, AMG-18 30 mg/kg 8 hours, TM 1 mg/kg
Experimental: FIGS. 1A-1K depict FMRP is a new inositol-requiring enzyme-1 (IRE1) kinase substrate. A representative blot is shown from at least n=3 independent experiments. Data are mean±SEM. Unpaired 1-test with Welch's correction or paired 1-test. * P≤0.05, ** P≤0.01, *** P≤0.001. • 1A. STING analysis of published IRE1 interactome proteins in relation to FMRP (Acosta-Alvear et al., 2018). • 1B. HEK293T cells were co-transfected with IRE1 and FMRP plasmids and stimulated with TG (600 nM) or TM (1 mg/ml) for 2 hours. Protein lysates were immunoprecipitated (IP) with anti-IRE1 or IgG (control) antibodies and analyzed by Western blotting using specific antibodies for FMRP and IRE1 (n=3). • 1C. RAW 264.7 mouse macrophages were treated with either oxLDL (50 μg/ml) or TG (300 nM) for 6 hours. Protein lysates were treated with λ Phosphatase (PPase) for 30 minutes and analyzed by western blotting using specific antibodies for pFMRP, FMRP, pIRE1, IRE1 and β-Actin. pFMRP/FMRP fold induction is depicted above the blots (n=6). • 1D. […] Protein lysates were analyzed by western blotting using specific antibodies for pFMRP, FMRP, pIRE1, IRE1 and β-Actin. pFMRP/FMRP-fold induction is depicted above the blots (n=5). • 1E. […] Protein lysates were analyzed by western blotting using specific antibodies for pFMRP, FMRP, pIRE1, IRE1 and β-Actin. pFMRP/FMRP fold induction is depicted above the blots (n=4). • 1F. […]

T1 sequence (Q9EQY0 21-977): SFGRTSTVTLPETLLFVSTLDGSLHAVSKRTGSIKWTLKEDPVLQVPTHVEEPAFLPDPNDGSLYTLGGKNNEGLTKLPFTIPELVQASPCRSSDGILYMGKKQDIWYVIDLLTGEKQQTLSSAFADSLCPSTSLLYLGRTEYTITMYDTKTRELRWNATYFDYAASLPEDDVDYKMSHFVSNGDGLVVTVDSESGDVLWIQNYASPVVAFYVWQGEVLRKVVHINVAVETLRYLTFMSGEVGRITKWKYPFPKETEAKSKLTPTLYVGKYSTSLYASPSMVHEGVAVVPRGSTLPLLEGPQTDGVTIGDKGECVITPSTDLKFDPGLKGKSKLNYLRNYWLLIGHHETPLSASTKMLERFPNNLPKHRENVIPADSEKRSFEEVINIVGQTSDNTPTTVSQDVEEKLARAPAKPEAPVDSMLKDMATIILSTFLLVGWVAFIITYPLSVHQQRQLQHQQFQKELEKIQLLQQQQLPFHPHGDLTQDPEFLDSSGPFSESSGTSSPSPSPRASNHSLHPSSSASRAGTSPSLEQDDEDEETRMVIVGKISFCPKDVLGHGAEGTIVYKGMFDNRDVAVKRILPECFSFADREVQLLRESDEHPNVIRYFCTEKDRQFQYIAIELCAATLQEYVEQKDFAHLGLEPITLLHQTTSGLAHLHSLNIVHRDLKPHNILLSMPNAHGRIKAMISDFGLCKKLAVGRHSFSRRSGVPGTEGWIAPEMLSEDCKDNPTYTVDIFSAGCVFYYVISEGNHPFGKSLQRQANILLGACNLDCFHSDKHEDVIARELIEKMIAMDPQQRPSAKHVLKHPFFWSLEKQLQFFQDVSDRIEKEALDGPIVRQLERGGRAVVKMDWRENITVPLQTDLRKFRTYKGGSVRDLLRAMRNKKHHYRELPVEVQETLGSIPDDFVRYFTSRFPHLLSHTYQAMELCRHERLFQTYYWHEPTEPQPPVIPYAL

Cc1ccc2c(NS(=O)(=O)c3ccccc3Cl)cccc2c1Oc1ncccc1-c1ccnc(N[C@H]2CCCNC2)n1 [AMG-18]
FMRP phosphorylation in PM: reduced | IRE1 kinase activity (pIRE1) in PM: inhibited
